“And” between values parts separate entries of the source, which are not always exact repeats. Identical values can stand only once. Toxic doses and inconclusive results are not listed. No stated cut-off is given here; in the data, active means T/C of 150% or more; inactive means T/C below 125%.
Tested on: L1210 leukemia ip in BDF1 mice, survival T/C
Assay: NCI In Vivo Anticancer Drug Screen. Data for tumor model L1210 Leukemia (intraperitoneal) in B6D2F1 (BDF1) mice
Conditions: endpoint: mean survival time, higher = longer survival
Summary of the method: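 Ratio derived from survival: compound-dosed mice over vehicle-dosed mice, all bearing a transplantable tumor.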

[1] = dose: 50.0 mg/kg/injection, schedule: Q01DX001 (ip), vehicle: saline
[2] = dose: 100.0 mg/kg/injection, schedule: Q01DX001 (ip), vehicle: saline
[3] = dose: 200.0 mg/kg/injection, schedule: Q01DX001 (ip), vehicle: saline
[4] = dose: 400.0 mg/kg/injection, schedule: Q01DX001 (ip), vehicle: saline
[5] = dose: 100.0 mg/kg/injection, schedule: Q04DX002 (ip), vehicle: saline
[6] = dose: 200.0 mg/kg/injection, schedule: Q04DX002 (ip), vehicle: saline
[7] = dose: 400.0 mg/kg/injection, schedule: Q04DX002 (ip), vehicle: saline
[8] = dose: 100.0 mg/kg/injection, schedule: Q01DX001 (ip), vehicle: carboxymethylcellulose (CMC)
[9] = dose: 200.0 mg/kg/injection, schedule: Q01DX001 (ip), vehicle: carboxymethylcellulose (CMC)
[10] = dose: 400.0 mg/kg/injection, schedule: Q01DX001 (ip), vehicle: carboxymethylcellulose (CMC)
[11] = dose: 50.0 mg/kg/injection, schedule: Q01DX009 (ip), vehicle: saline with Tween-80
[12] = dose: 100.0 mg/kg/injection, schedule: Q01DX009 (ip), vehicle: saline with Tween-80
[13] = dose: 200.0 mg/kg/injection, schedule: Q01DX009 (ip), vehicle: saline with Tween-80
[14] = dose: 12.5 mg/kg/injection, schedule: Q01DX009 (ip), vehicle: saline with Tween-80
[15] = dose: 25.0 mg/kg/injection, schedule: Q01DX009 (ip), vehicle: saline with Tween-80
[16] = dose: 100.0 mg/kg/injection, schedule: Q01DX009 (ip), vehicle: saline

Measured: T/C

CC(C)(C)CC(C)(C)NCC#N
inactive: dose: 6.25 mg/kg/injection, schedule: Q04DX003 (ip), vehicle: Klucel (hydroxypropylcellulose) (HPC) 92 % of control | dose: 12.5 mg/kg/injection, schedule: Q04DX003 (ip), vehicle: Klucel (hydroxypropylcellulose) (HPC) 95 % of control | dose: 25.0 mg/kg/injection, schedule: Q04DX003 (ip), vehicle: Klucel (hydroxypropylcellulose) (HPC) 92 % of control and 96 % of control

Brc1ccc2c(c1)CCC2
inactive: [1] 93 % of control | [2] 106 % of control and 88 % of control | [3] 94 % of control and 95 % of control | [4] 97 % of control and 98 % of control

CC1C2COCC2CC2OC21 (stereo unspecified)
inactive: dose: 50.0 mg/kg/injection, schedule: Q01DX001 (ip), vehicle: saline sonified 124 % of control | dose: 100.0 mg/kg/injection, schedule: Q01DX001 (ip), vehicle: saline sonified 109 % of control | dose: 200.0 mg/kg/injection, schedule: Q01DX001 (ip), vehicle: saline sonified 102 % of control

CCCCOCCOCCOc1ccc(Cl)cc1
inactive: [5] 100 % of control | [6] 113 % of control | [7] 100 % of control

O=C(Nc1ccc(S(=O)(=O)NC2CCCCC2)cc1)OC1CCCC1
inactive: [8] 95 % of control | [9] 94 % of control | [10] 97 % of control

O=C1NC2C3CCC(C3)C12 (stereo unspecified)
inactive: dose: 10.0 mg/kg/injection, schedule: Q04DX002 (ip), vehicle: saline 90 % of control | dose: 20.0 mg/kg/injection, schedule: Q04DX002 (ip), vehicle: saline 107 % of control | dose: 40.0 mg/kg/injection, schedule: Q04DX002 (ip), vehicle: saline 93 % of control

CCN(CC)c1ccc(N=Nc2ccccc2)cc1
inactive: dose: 50.0 mg/kg/injection, schedule: Q01DX001 (ip), vehicle: carboxymethylcellulose (CMC) 93 % of control | [8] 86 % of control | [9] 96 % of control | [10] 98 % of control

OCC(O)c1ccccn1 (stereo unspecified)
inactive: dose: 100.0 mg/kg/injection, schedule: Q04DX003 (ip), vehicle: saline 107 % of control | dose: 200.0 mg/kg/injection, schedule: Q04DX003 (ip), vehicle: saline 94 % of control | dose: 400.0 mg/kg/injection, schedule: Q04DX003 (ip), vehicle: saline 94 % of control

O=P(c1ccccc1)(c1ccccc1)N1CC1c1ccccc1 (stereo unspecified)
inactive: dose: 75.0 mg/kg/injection, schedule: Q01DX001 (ip), vehicle: carboxymethylcellulose (CMC) 96 % of control | dose: 150.0 mg/kg/injection, schedule: Q01DX001 (ip), vehicle: carboxymethylcellulose (CMC) 95 % of control | dose: 300.0 mg/kg/injection, schedule: Q01DX001 (ip), vehicle: carboxymethylcellulose (CMC) 90 % of control

O=C(/C=C/C(=O)n1ccc2ccccc21)n1ccc2ccccc21
inactive: [1] 95 % of control | [2] 95 % of control | [3] 101 % of control | [4] 95 % of control

COc1cc2c(cc1OC(C)=O)C(=O)C(Br)CCC2 (stereo unspecified)
inactive: [11] 90 % of control | [12] 101 % of control | [13] 93 % of control

CCOC(=O)c1ccc(NC(=O)Cn2cnc3c(=S)nc[nH]c32)cc1
inactive: dose: 25.0 mg/kg/injection, schedule: Q01DX001 (ip), vehicle: Klucel (hydroxypropylcellulose) (HPC) 92 % of control | dose: 50.0 mg/kg/injection, schedule: Q01DX001 (ip), vehicle: Klucel (hydroxypropylcellulose) (HPC) 106 % of control | dose: 100.0 mg/kg/injection, schedule: Q01DX001 (ip), vehicle: Klucel (hydroxypropylcellulose) (HPC) 95 % of control

Cc1ccc(NC(=S)N(C)C)cc1C
inactive: dose: 100.0 mg/kg/injection, schedule: Q01DX009 (ip), vehicle: Klucel (hydroxypropylcellulose) (HPC) 95 % of control | dose: 200.0 mg/kg/injection, schedule: Q01DX009 (ip), vehicle: Klucel (hydroxypropylcellulose) (HPC) 101 % of control | dose: 400.0 mg/kg/injection, schedule: Q01DX009 (ip), vehicle: Klucel (hydroxypropylcellulose) (HPC) 104 % of control

C/C=C\C=N\NC(N)=S
inactive: dose: 12.5 mg/kg/injection, schedule: Q04DX003 (ip), vehicle: saline with Tween-80 95 % of control | dose: 25.0 mg/kg/injection, schedule: Q04DX003 (ip), vehicle: saline with Tween-80 103 % of control | dose: 50.0 mg/kg/injection, schedule: Q04DX003 (ip), vehicle: saline with Tween-80 95 % of control

SCCSCCNc1ccccc1
inactive: [11] 101 % of control | [12] 101 % of control | [13] 101 % of control

CN(C)c1ccc2cc3ccc(N(C)C)cc3nc2c1
inactive: dose: 6.25 mg/kg/injection, schedule: Q01DX009 (ip), vehicle: saline with Tween-80 93 % of control | [14] 98 % of control | [15] 93 % of control | dose: 25.0 mg/kg/injection, schedule: Q04DX002 (ip), vehicle: saline with Tween-80 98 % of control | dose: 50.0 mg/kg/injection, schedule: Q04DX002 (ip), vehicle: saline with Tween-80 98 % of control

CNC(Cl)(Cl)NC
inactive: dose: 50.0 mg/kg/injection, schedule: Q01DX009 (ip), vehicle: saline 90 % of control | [16] 87 % of control | [5] 86 % of control | [6] 88 % of control

Cc1cc(P(=O)(O)O)ccc1[N+](=O)[O-]
inactive: dose: 75.0 mg/kg/injection, schedule: Q01DX001 (ip), vehicle: saline 95 % of control | dose: 150.0 mg/kg/injection, schedule: Q01DX001 (ip), vehicle: saline 88 % of control | dose: 300.0 mg/kg/injection, schedule: Q01DX001 (ip), vehicle: saline 96 % of control

O=C1NCC(Nc2ccccc2Cl)C(=O)N1 (stereo unspecified)
inactive: dose: 100.0 mg/kg/injection, schedule: Q01DX Z (ip), vehicle: saline 96 % of control

C1=CC(OC2C=CCC2)CC1 (stereo unspecified)
inactive: dose: 25.0 mg/kg/injection, schedule: Q04DX002 (ip), vehicle: saline 89 % of control | dose: 50.0 mg/kg/injection, schedule: Q04DX002 (ip), vehicle: saline 118 % of control | [5] 99 % of control

O=C(O)CNC1CCCCC1
inactive: [16] 96 % of control | [5] 97 % of control | dose: 200.0 mg/kg/injection, schedule: Q01DX009 (ip), vehicle: saline 89 % of control | [6] 102 % of control | dose: 400.0 mg/kg/injection, schedule: Q01DX009 (ip), vehicle: saline 96 % of control | [7] 97 % of control

CC1C(c2ccccc2)N1P(I)(c1ccccc1)(c1ccccc1)c1ccccc1 (stereo unspecified)
inactive: dose: 15.0 mg/kg/injection, schedule: Q01DX001 (ip), vehicle: carboxymethylcellulose (CMC) 116 % of control

COC(=O)N/N=C/Cc1ccccc1
inactive: [15] 91 % of control | [11] 90 % of control | [12] 102 % of control

CSc1nc(O)c(-c2ccccc2)c(=O)[nH]1
inactive: dose: 100.0 mg/kg/injection, schedule: Q01DX Z (ip), vehicle: methylcellulose (MC) 103 % of control | dose: 200.0 mg/kg/injection, schedule: Q01DX Z (ip), vehicle: methylcellulose (MC) 101 % of control

Cc1cc(O)c(O)c(C(C)(C)C)c1
inactive: dose: 100.0 mg/kg/injection, schedule: Q04DX002 (ip), vehicle: other 102 % of control | dose: 200.0 mg/kg/injection, schedule: Q04DX002 (ip), vehicle: other 87 % of control

[O-]/[N+](=N\O)c1ccc(/[N+]([O-])=N\O)cc1
inactive: [14] 88 % of control | [15] 88 % of control | [11] 97 % of control and 107 % of control and 91 % of control | dose: 100.0 mg/kg/injection, schedule: Q01DX001 (ip), vehicle: saline with Tween-80 95 % of control | [12] 102 % of control | dose: 200.0 mg/kg/injection, schedule: Q01DX001 (ip), vehicle: saline with Tween-80 98 % of control | [13] 87 % of control

CCCCCCCN=C(N)CSSCC(N)=NCCCCCCC
inactive: dose: 1.56 mg/kg/injection, schedule: Q04DX002 (ip), vehicle: saline with Tween-80 101 % of control | dose: 3.13 mg/kg/injection, schedule: Q04DX002 (ip), vehicle: saline with Tween-80 96 % of control | dose: 6.25 mg/kg/injection, schedule: Q04DX002 (ip), vehicle: saline with Tween-80 108 % of control and 115 % of control

O=C1CC23CCC(=O)C2(CC3)C1 (stereo unspecified)
inactive: dose: 75.0 mg/kg/injection, schedule: Q04DX002 (ip), vehicle: saline 103 % of control | dose: 150.0 mg/kg/injection, schedule: Q04DX002 (ip), vehicle: saline 103 % of control | dose: 300.0 mg/kg/injection, schedule: Q04DX002 (ip), vehicle: saline 100 % of control

Reference: PubChem BioAssay AID248 (DTP/NCI, 2004)
